This note sets out measurements from patent publication US7960556B2, “Thiadiazole derivatives for the treatment of neuro-degenerative diseases” (NV reMYND, priority 2006, dated 2011).

The assay concerns α-synuclein cytotoxicity in M17-SYNwt cells. Nature of the assay: α-synuclein cytotoxicity assay: LDH leakage from paraquat-treated M17-SYNwt neuroblastoma cells.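 As to all read-outs here: paraquat at 32 mM co-added with compound, 40 h exposure, LDH activity released into the culture medium measured, references are DMSO-only cells and paraquat plus DMSO cells.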 Conditions: Homo sapiens, Neuroblastoma cell; for Emax: read-out: % Inhib.

Source text: An α-synuclein expression plasmid was constructed by sub-cloning the NcoI/XhoI fragment from 212T-SYN(WT) (Griffioen et al., Biochem Biophys Acta (2006) 1762(3):312-318) containing the cDNA of human wild type α-synuclein correspondingly into a standard mammalian expression vector pcDNA3.1 (Invitrogen) resulting into the plasmid pcDNA3.1-SYNwt. Plasmids pcDNA3.1 and pcDNA3.1-SYNwt were transfected to human neuroblastoma cells (ATCC No. CRL-2267) and independent clonal lines with the plasmids stably integrated into the genome were selected. […] Over-expression of α-synuclein in M17-SYNwt cell lines was confirmed by Western analysis.
Due to the high levels of α-synuclein M17-SYNwt cells are exquisitely sensitivity to paraquat, a well-known risk factor of synuclein-dependent neuronal degeneration. In degenerated or dead cells lactate dehydrogenase (LDH) is leaked out of the cells into the extracellular environment due to a loss of plasma-membrane integrity. This principle was used to determine cytotoxicity by quantifying the level of leaked LDH into the growth medium.
The detailed method for determining α-synuclein cytotoxicity was as follows: From appropriate precultures of M17 and M17-SYN cells were seeded at 50,000 cells/cm^2 in Optimem Reduced Serum without phenol red (available from InVitrogen, Cat. 31985-047) supplemented with 5% fetal calf serum, 1 mM sodium pyruvate, 1× non-essential amino acids, 500 μg/ml G418 0,5× antibiotic/antimycotic. After 3 hours of incubation at 37° C./5% CO2 paraquat was added to the cells (final concentration of 32 mM), together with the test compound and the cells were further incubated for 40 hours. Subsequently, LDH activity was determined using Promega Cytotox 96 Non-Radioactive cytotoxicity assay, (Cat. G1780) according the instructions of the supplier.
In these experiments, the control group consisted of M17-SYNwt cells treated with DMSO, the untreated paraquat group consisted of M17-SYNwt cells treated with paraquat and DMSO, and the treated paraquat group consisted of M17-SYNwt cells treated with paraquat and the test compound dissolved in DMSO.

With `CC(C)(C)c1ccc(C(=O)N2CCN(c3nc(Cc4ccc(F)cc4)ns3)CC2)cc1` [compound 180, 1-(4-tert-butylbenzoyl)-4-[3-(4-fluorobenzyl)-1,2,4-thiadiazol-5-yl]piperazine], the Emax amounted to 62%. Turning to `O=C(c1ccccc1)N1CCN(c2nc(Cc3ccc(F)cc3)ns2)CC1` [compound 181, 1-benzoyl-4-[3-(4-fluorobenzyl)-1,2,4-thiadiazol-5-yl]piperazine], the Emax worked out at 60%.

As for `CCCCc1ccc(C(=O)N2CCN(c3nc(Cc4ccc(C)cc4)ns3)CC2)cc1` [compound 182, 1-(4-butylbenzoyl)-4-[3-(4-methylbenzyl)-1,2,4-thiadiazol-5-yl]piperazine], the Emax came to 57%. Take `Cc1ccc(Cc2nsc(N3CCN(C(=O)c4ccc(C(C)(C)C)cc4)CC3)n2)cc1` [compound 183, 1-(4-tert-butylbenzoyl)-4-[3-(4-methylbenzyl)-1,2,4-thiadiazol-5-yl]piperazine]: the Emax was found to be 52%. For `CC1CN(c2nc(Cc3ccc(F)cc3)ns2)CCN1C(=O)c1ccc([N+](=O)[O-])cc1` (stereo not drawn) [compound 184, 1-(4-nitrobenzoyl)-4-[3-(4-fluorobenzyl)-1,2,4-thiadiazol-5-yl]-2-methylpiperazine], the Emax was determined as 52%.

For `CCOc1ccccc1N1CCN(c2nc(Cc3ccc(F)cc3)ns2)CC1` [compound 186, 1-(2-ethoxyphenyl)-4-[3-(4-fluorobenzyl)-1,2,4-thiadiazol-5-yl]piperazine], a half-maximal effect (EC50) was put at 2050 nM and the Emax is 94%. Turning to `Fc1ccc(Cc2nsc(N3CCN(c4ccccc4F)CC3)n2)cc1` [compound 187, 1-(2-fluorophenyl)-4-[3-(4-fluorobenzyl)-1,2,4-thiadiazol-5-yl]piperazine], a half-maximal effect (EC50) was put at 2810 nM and the Emax was 83%. For `Fc1ccc(Cc2nsc(N3CCN(c4cccc(C(F)(F)F)c4)CC3)n2)cc1` [compound 188, 1-(3-trifluoromethylphenyl)-4-[3-(4-fluorobenzyl)-1,2,4-thiadiazol-5-yl]piperazine], the Emax was 96%. As to `O=C(c1ccc(Cl)cc1)N1CCCN(c2nc(Cc3ccc(F)cc3)ns2)CC1` [compound 189, 1-(4-chlorobenzoyl)-4-[3-(4-fluorobenzyl)-1,2,4-thiadiazol-5-yl]-1,4-diazepane], the midpoint of the response, the EC50, lay at 170 nM and the Emax worked out at 85%. On to `Cc1ccc(C(=O)N2CCCN(c3nc(Cc4ccc(F)cc4)ns3)CC2)cc1` [compound 190, 1-(4-methylbenzoyl)-4-[3-(4-fluorobenzyl)-1,2,4-thiadiazol-5-yl]-1,4-diazepane], for which the EC50 is 2770 nM and the Emax was found to be 87%.

`O=C(c1ccc2c(c1)OCO2)N1CCCN(c2nc(Cc3ccc(F)cc3)ns2)CC1` [compound 191, 1-(1,3-benzodioxol-5-ylcarbonyl)-4-[3-(4-fluorobenzyl)-1,2,4-thiadiazol-5-yl]-1,4-diazepane]: the Emax came to 63%. For `COc1ccc(S(=O)(=O)N2CCN(c3nc(Cc4cccc(F)c4)ns3)CC2)cc1` [compound 193, 1-[4-methoxyphenylsulfonyl]-4-[3-(3-fluoro-benzyl)-1,2,4-thiadiazol-5-yl]piperazine], the concentration for a half-maximal effect (EC50) amounted to 10.7 nM and the Emax was 68%.

As to `COc1ccc(S(=O)(=O)N2CCN(c3nc(Cc4ccccc4F)ns3)CC2)cc1` [compound 194, 1-[4-methoxyphenylsulfonyl]-4-[3-(2-fluoro-benzyl)-1,2,4-thiadiazol-5-yl]piperazine], the response was half-maximal at 2.7 nM (EC50) and the Emax is 102%. As to `COc1ccccc1S(=O)(=O)N1CCN(c2nc(Cc3ccc(F)cc3)ns2)CC1` [compound 195], a half-maximal effect (EC50) was put at 56.7 nM and the Emax amounted to 99%. Consider `CCOc1ccc(S(=O)(=O)N2CCN(c3nc(Cc4ccc(F)cc4)ns3)CC2)cc1` [compound 196, 1-[4-ethoxyphenylsulfonyl]-4-[3-(4-fluoro-benzyl)-1,2,4-thiadiazol-5-yl]piperazine], for which a half-maximal response (EC50) required 17.6 nM and the Emax was determined as 42%.

In the case of `CCc1ccc(S(=O)(=O)N2CCN(c3nc(Cc4ccc(F)cc4)ns3)CC2)cc1` [compound 197, 1-[4-ethylphenylsulfonyl]-4-[3-(4-fluoro-benzyl)-1,2,4-thiadiazol-5-yl]piperazine], the EC50 worked out at 535 nM and the Emax was 84%. Consider `O=S(=O)(c1ccccc1)N1CCN(c2nc(Cc3ccc(F)cc3)ns2)CC1` [compound 198, 1-phenylsulfonyl-4-[3-(4-fluoro-benzyl)-1,2,4-thiadiazol-5-yl]piperazine], for which the concentration giving a half-maximal response (EC50) was 349 nM and the Emax amounted to 25%. On to `COc1ccc(S(=O)(=O)N2CCN(c3nc(Cc4ccccc4)ns3)CC2)cc1` [compound 199, 1-[4-methoxyphenylsulfonyl]-4-[3-benzyl-1,2,4-thiadiazol-5-yl]piperazine], for which the EC50 stood at 3.8 nM and the Emax was 38%. Turning to `COc1ccc(S(=O)(=O)N2CCN(c3nc(Cc4cccc(OC)c4)ns3)CC2C)cc1` (stereo not drawn) [compound 208, 1-[4-methoxyphenylsulfonyl]-4-[3-(3-methoxybenzyl)-1,2,4-thiadiazol-5-yl]-2-methyl-piperazine], the half-maximal effective concentration (EC50) is 7.3 nM. That is a single-digit nanomolar value.

Regarding `COc1ccc(S(=O)(=O)NCCNc2nc(Cc3cccc(OC)c3)ns2)cc1` [compound 209, 1-N-[4-methoxyphenylsulfonyl]-N′-[3-(3-methoxybenzyl)-1,2,4-thiadiazol-5-yl]-ethane-1,2-diamine], the response was half-maximal at 317 nM (EC50) and the Emax stood at 100%. With `COc1ccc(S(=O)(=O)NCCCNc2nc(Cc3cccc(OC)c3)ns2)cc1` [compound 211, N-[4-methoxyphenylsulfonyl]-N′-[3-(3-methoxybenzyl)-1,2,4-thiadiazol-5-yl]-propane-1,3-diamine], the EC50 was found to be 367 nM and the Emax was found to be 100%.

As for `COc1ccc(S(=O)(=O)NCCN(C)c2nc(Cc3cccc(OC)c3)ns2)cc1` [compound 213, N′-[4-methoxyphenylsulfonyl]-N-[3-(3-methoxybenzyl)-1,2,4-thiadiazol-5-yl]-N-methylethane-1,2-diamine], a half-maximal response (EC50) required 361 nM and the Emax was 94%. `COc1ccc(S(=O)(=O)N(C)CCNc2nc(Cc3cccc(OC)c3)ns2)cc1` [compound 214, N′-[4-methoxyphenylsulfonyl]-N-[3-(3-methoxybenzyl)-1,2,4-thiadiazol-5-yl]-N′-methylethane-1,2-diamine]: the EC50 stood at 498 nM and the Emax was determined as 95%. Turning to `COc1ccc(S(=O)(=O)N(C)CCN(C)c2nc(Cc3cccc(OC)c3)ns2)cc1` [compound 215, N′-[4-methoxyphenylsulfonyl]-N-[3-(3-methoxybenzyl)-1,2,4-thiadiazol-5-yl]-N,N′-dimethylethane-1,2-diamine], the EC50 was 301 nM and the Emax amounted to 105%. For `O=S(=O)(c1ccc(O)cc1)N1CCN(c2nc(Cc3ccc(F)cc3)ns2)CC1` [compound 217, 1-(4-hydroxybenzenesulfonyl)-4-[3-(4-fluoro-benzyl)-1,2,4-thiadiazol-5-yl]piperazine], in that order: 77 nM and 77%.
